This test deals with normal human neonatal foreskin epidermal keratinocytes (NHEK-F). Kind of test: Cell proliferation inhibition test. In kind it is cell-based. To be noted: Keratinocyte, 72 h, NHEK-F cells, three days incubation, ATPlite or CellTiterGlo, read-out: IC50 (concentration of the compound at which the cell count is reduced by 50%). A digest of the protocol: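 IC50 is the compound level halving cell count relative to untreated wells, with counts from ATP-based luminescence (ATPlite or CellTiterGlo). Readout followed 3 days of compound exposure of overnight-attached neonatal foreskin keratinocytes (2×10^3/well, Humedia-EG2 medium).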
A general note: Cellular ATP, detected with luciferase, serves as a proxy for viable cell number.

With `O=C(O)c1cc(C2CC2)cnc1Nc1ccc2c(ccn2Cc2cc(C(F)(F)F)cc(C(F)(F)F)c2)c1` [Example 499, 2-((1-(3,5-bis(trifluoromethyl)benzyl)-1H-indol-5-yl)amino)-5-cyclopropylnicotinic acid], the IC50 is at most 10 nM.

In the case of `O=C(O)c1cc(C2CC2)cnc1Nc1cccc2c1ccn2CC1CCCCO1` (centres unmarked) [Example 423, 5-cyclopropyl-2-((1-((tetrahydro-2H-pyran-2-yl)methyl)-1H-indol-4-yl)amino)nicotinic acid], the IC50 fell in the range of 10 to 100 nM.

Regarding `O=C(O)c1cc(Cl)ccc1Nc1ccc2c(c1)c(C(=O)c1ccccc1)cn2Cc1ccccc1` [Example 86, 2-((3-benzoyl-1-benzyl-1H-indol-5-yl)amino)-5-chlorobenzoic acid], the IC50 lay in the range of 100 to 1000 nM.

As for `Cc1ccccc1-c1cn(C)c2ccc(Nc3ncc(C4CC4)cc3C(=O)O)cc12` [Example 567, 5-cyclopropyl-2-((1-methyl-3-(2-methylphenyl)-1H-indol-5-yl)amino)nicotinic acid], the IC50 lay in the range of 10 to 100 nM.

Consider `Cn1ccc2cc(Nc3ncc(C4CC4)cc3C(=O)O)cc(C3=CCOCC3)c21` [Example 471, 5-cyclopropyl-2-((7-(3,6-dihydro-2H-pyran-4-yl)-1-methyl-1H-indol-5-yl)amino)nicotinic acid], for which the IC50 is at most 10 nM.

Consider `Cn1cc(-c2ccccc2)c2cc(Nc3ncc(Cl)cc3C(=O)O)ccc21` [Example 647, 5-chloro-2-((1-methyl-3-phenyl-1H-indol-5-yl)amino)nicotinic acid], for which the IC50 was 10 to 100 nM.

`Cc1ccc(-n2ccc3cc(Nc4ccc(Cl)cc4C(=O)O)ccc32)nn1` [Example 100, 5-chloro-2-((1-(6-methylpyridazin-3-yl)-1H-indol-5-yl)amino)benzoic acid]: the IC50 was 100 to 1000 nM.

Turning to `O=C(O)c1cc(Cl)ccc1Nc1ccc2c(ccn2Cc2ccccn2)c1` [Example 341, 5-chloro-2-((1-(pyridin-2-ylmethyl)-1H-indol-5-yl)amino)benzoic acid], the IC50 was in the range of 10 to 100 nM.

With `O=C(O)c1cc(C2CC2)cnc1Nc1ccc2c(ccn2CCCC(F)(F)F)c1` [Example 616, 5-cyclopropyl-2-((1-(4,4,4-trifluorobutyl)-1H-indol-5-yl)amino)nicotinic acid], the IC50 lay within 10 to 100 nM.

In the case of `Cn1ccc2cc(Nc3ncc(C4CC4)cc3C(=O)O)cc(C3CC3)c21` [Example 409, 5-cyclopropyl-2-((7-cyclopropyl-1-methyl-1H-indol-5-yl)amino)nicotinic acid], the IC50 was 10 to 100 nM.

`O=C(O)c1cc(C2CC2)cnc1Nc1ccc2cc(-c3ccccc3)ccc2c1` [Example 218, 5-cyclopropyl-2-((6-phenylnaphthalen-2-yl)amino)nicotinic acid]: the IC50 is 10 to 100 nM.

Take `O=C(O)c1cc(C2CC2)cnc1Nc1ccc2c(ccn2Cc2cccc(OC(F)(F)F)c2)c1` [Example 496, 5-cyclopropyl-2-((1-(3-(trifluoromethoxy)benzyl)-1H-indol-5-yl)amino)nicotinic acid]: the IC50 fell in the range of 10 to 100 nM.

`O=C(O)c1cc(C2CC2)cnc1Nc1ccc2ccn(-c3ccccc3)c2c1` [Example 525, 5-cyclopropyl-2-((1-phenyl-1H-indol-6-yl)amino)nicotinic acid]: the IC50 was at most 10 nM.

As to `O=C(O)c1cc(Cl)ncc1Nc1ccc2c(ccn2Cc2ccccc2)c1` [Example 229, 5-((1-benzyl-1H-indol-5-yl)amino)-2-chloroisonicotinic acid], the IC50 is 10 to 100 nM.

Consider `O=C(O)c1cc(C2CC2)cnc1Nc1c(F)cc2c(ccn2Cc2ccccc2)c1F` [Example 554, 2-((1-benzyl-4,6-difluoro-1H-indol-5-yl)amino)-5-cyclopropylnicotinic acid], for which the IC50 is at most 10 nM.

Take `Cn1ccc2cc(Nc3ncc(C4CC4)cc3C(=O)O)cc(/C=C/C(C)(C)C)c21` [Example 594, 5-cyclopropyl-2-((7-((1E)-3,3-dimethylbut-1-en-1-yl)-1-methyl-1H-indol-5-yl)amino)nicotinic acid]: the IC50 is at most 10 nM.

Turning to `Cn1ccc2cc(Nc3ncc(C4CC4)cc3C(=O)O)cc(-c3cccc(C(F)(F)F)c3)c21` [Example 480], the IC50 was at most 10 nM.

For the molecule `Cn1ccc2cc(Nc3ncc(C4CC4)cc3C(=O)O)cc(-c3cccc(C#N)c3)c21` [Example 483, 2-((7-(3-cyanophenyl)-1-methyl-1H-indol-5-yl)amino)-5-cyclopropylnicotinic acid], the IC50 is at most 10 nM.

On to `O=C(O)c1cc(Cl)ccc1Nc1ccc2c(ccn2-c2cccnc2)c1` [Example 49, 5-chloro-2-((1-(pyridin-3-yl)-1H-indol-5-yl)amino)benzoic acid], for which the IC50 was 10 to 100 nM.

Turning to `Cc1cnc(Nc2ccc3c(ccn3Cc3ccccc3)c2)c(C(=O)O)c1` [Example 125, 2-((1-benzyl-1H-indol-5-yl)amino)-5-methylnicotinic acid], the IC50 was in the range of 10 to 100 nM.

As to `Cn1ccc2cc(Nc3ncc(C4CC4)cc3C(=O)O)cc(C3CCCCC3)c21` [Example 607, 2-((7-cyclohexyl-1-methyl-1H-indol-5-yl)amino)-5-cyclopropylnicotinic acid], the IC50 is at most 10 nM.

On to `Cn1ccc2cc(Nc3ncc(C4CC4)cc3C(=O)O)cc(-c3cccc(F)c3)c21` [Example 465, 5-cyclopropyl-2-((7-(3-fluorophenyl)-1-methyl-1H-indol-5-yl)amino)nicotinic acid], for which the IC50 is at most 10 nM.

In the case of `Cn1c(C(C)(C)C)cc2cc(Nc3ncc(C4CC4)cc3C(=O)O)ccc21` [Example 157, 2-((2-(tert-butyl)-1-methyl-1H-indol-5-yl)amino)-5-cyclopropylnicotinic acid], the IC50 is 100 to 1000 nM.

Regarding `COCCCc1cc(Nc2ncc(C3CC3)cc2C(=O)O)cc2ccn(CC3CC3)c12` [Example 609, 5-cyclopropyl-2-((1-(cyclopropylmethyl)-7-(3-methoxypropyl)-1H-indol-5-yl)amino)nicotinic acid], the IC50 is at most 10 nM.

Take `CCCn1ccc2cc(Nc3ncc(C4CC4)cc3C(=O)O)ccc21` [Example 636, 5-cyclopropyl-2-((1-propyl-1H-indol-5-yl)amino)nicotinic acid]: the IC50 was 10 to 100 nM.

Consider `Cn1cc(C2CCCCC2)c2cc(Nc3ncc(C4CC4)cc3C(=O)O)ccc21` [Example 612, 2-((3-cyclohexyl-1-methyl-1H-indol-5-yl)amino)-5-cyclopropylnicotinic acid], for which the IC50 lay in the range of 10 to 100 nM.

Regarding `O=C(O)c1cc(C2CC2)cnc1Nc1ccc2c(ccn2Cc2ccc(Cl)cc2)c1` [Example 461, 2-((1-(4-Chlorobenzyl)-1H-indol-5-yl)amino)-5-cyclopropylnicotinic acid], the IC50 is at most 10 nM.

Consider `Cn1ccc2cc(Nc3ncc(C4CC4)cc3C(=O)O)cc(-c3ccncc3F)c21` [Example 589, 5-cyclopropyl-2-((7-(3-fluoropyridin-4-yl)-1-methyl-1H-indol-5-yl)amino)nicotinic acid], for which the IC50 lay in the range of 10 to 100 nM.

In the case of `O=C(O)c1cc(C2CC2)cnc1Nc1ccc2c(ccn2C(=O)C2CCCCC2)c1` [Example 583, 2-((1-(cyclohexylcarbonyl)-1H-indol-5-yl)amino)-5-cyclopropylnicotinic acid], the IC50 fell in the range of 10 to 100 nM.

With `O=C(O)c1cc(C2CC2)cnc1Nc1ccc2ncnc(-c3ccccc3)c2c1` [Example 533, 5-cyclopropyl-2-((4-phenylquinazolin-6-yl)amino)nicotinic acid], the IC50 was in the range of 100 to 1000 nM.

Regarding `O=C(O)c1cc(Cl)ccc1Nc1ccnc2c1ccn2Cc1ccccc1` [Example 9, 2-((1-benzyl-1H-pyrrolo(2,3-b)pyridin-4-yl)amino)-5-chlorobenzoic acid], the IC50 was 10 to 100 nM.

On to `CC(C)Cn1ncc2cc(Nc3ncc(C4CC4)cc3C(=O)O)ccc21` [Example 541, 5-cyclopropyl-2-((1-isobutyl-1H-indazol-5-yl)amino)nicotinic acid], for which the IC50 fell in the range of 10 to 100 nM.

With `O=C(O)c1cc(C2CC2)ccc1Nc1cccc2c1ccc(=O)n2-c1ccccc1` [Example 539, 5-cyclopropyl-2-((2-oxo-1-phenyl-1,2-dihydroquinolin-5-yl)amino)benzoic acid], the IC50 is at most 10 nM.

`Cn1ccc2cc(Nc3ncc(C4CC4)cc3C(=O)O)cc(-c3ccc(OC(F)(F)F)cc3)c21` [Example 493, 5-cyclopropyl-2-((1-methyl-7-(4-(trifluoromethoxy)phenyl)-1H-indol-5-yl)amino)nicotinic acid]: the IC50 was at most 10 nM.

For `O=C(O)c1cc(C2CC2)ccc1Nc1ccc2[nH]cc(-c3ccccc3)c2c1` [Example 377, 5-cyclopropyl-2-((3-phenyl-1H-indol-5-yl)amino)benzoic acid], the IC50 was 10 to 100 nM.

Turning to `O=C(O)c1cc(Cl)ccc1Nc1ccc2c(c1)c(Cc1ccccc1)cn2Cc1ccccc1` [Example 88, 5-chloro-2-((1,3-dibenzyl-1H-indol-5-yl)amino)benzoic acid], the IC50 lay in the range of 10 to 100 nM.

In the case of `O=C(O)c1cc(C2CC2)cnc1Nc1ccc2c(ccn2Cc2ccccc2C(F)(F)F)c1` [Example 449, 5-cyclopropyl-2-((1-(2-(trifluoromethyl)benzyl)-1H-indol-5-yl)amino)nicotinic acid], the IC50 lay in the range of 10 to 100 nM.

In the case of `CC(C)(C)c1cc2cc(Nc3ncc(C4CC4)cc3C(=O)O)ccc2[nH]1` [Example 389, 2-((2-(tert-butyl)-1H-indol-5-yl)amino)-5-cyclopropylnicotinic acid], the IC50 was in the range of 100 to 1000 nM.

In the case of `Cn1ccc2cc(Nc3ncc(Cl)cc3C(=O)O)cc(-c3ccccc3)c21` [Example 625, 5-chloro-2-((1-methyl-7-phenyl-1H-indol-5-yl)amino)nicotinic acid], the IC50 was 10 to 100 nM.

With `COCCn1ccc2cc(Nc3ncc(C4CC4)cc3C(=O)O)ccc21` [Example 129, 5-cyclopropyl-2-((1-(2-methoxyethyl)-1H-indol-5-yl)amino)nicotinic acid], the IC50 fell in the range of 100 to 1000 nM.

Regarding `Cn1cc(-c2ccccc2)c2ccc(Nc3ncc(C4CC4)cc3C(=O)O)cc21` [Example 41, 5-cyclopropyl-2-((1-methyl-3-phenyl-1H-indol-6-yl)amino)nicotinic acid], the IC50 was in the range of 10 to 100 nM.

Values taken from US9624215B2, “Amine derivative or salt thereof” (TOYAMA CHEMICAL CO., LTD., priority 2012, dated 2017).
